Measurements published in US9387206B2, “Therapeutic approaches for treating Alzheimer's disease” (PHARNEXT, priority 2009, dated 2016).

Columns and labels:
Type in all cases: cell-based
[1] = tested on: rat endothelial cerebral cells; test: LDH release from rat endothelial cerebral cells, beta-amyloid (Aβ25-35) toxicity; details: for Prevention of Aβ25-35 intoxication, LDH release: Aβ25-35 30 μM, 3 days, drug added 1 hour before; for Spontaneous cell death in the culture medium: LDH release, rat endothelial cerebral cells
Experimental: Primo culture of rat endothelial cerebral cells (Vect-Horus SAS, Marseille) is cultivated on passage 0. At confluence, endothelial cells are dissociated with trypsin EDTA (Pan Biotech Ref: P10-023100). Cells are seeded at a density of 25,000 cells/well in 96-well plates (wells are coated with 30 μl of type I rat collagen at 1.5 mg/ml, Vect-Horus SAS, Marseille) and are cultured in MCBD 131 medium (M-131-500, Invitrogen) supplemented with 1% of microvascular growth supplement (MVGS, S-005-25, Invitrogen). Cells are cultured at 37° C. in a humidified air (95%)/CO2(5%) atmosphere. Half of the medium is changed every other day with fresh medium.
After 4 days, drugs are added to the cell culture medium, at different concentrations, solved in DMSO 0.1% or water.
Cells are then intoxicated with 30 μM of β-amyloid (25-35; Sigma) together with drugs in the same culture medium. Cells are then intoxicated for 3 days.
For each culture, after 3 days of intoxication, the supernatant is collected and analyzed with the Cytotoxicity Detection Kit (LDH, Roche Applied Sciences). This colorimetric assay for the quantification of cell death is based on the measurement of lactate dehydrogenase (LDH) activity released from the cytosol of damaged cells into the supernatant. The optic density (DO) is assessed by spectrophotometer at 492 nm wavelength by a multiscan apparatus (Thermo, Ref Ascent).
Results presented in FIG. 3 are extracted from two independent cultures, 6 wells per condition. All values are expressed as mean±s.e.m. A bilateral Student's t test analysis is performed on raw data. Results are expressed in percentage of cell viability, compared to the control (vehicle).
Drugs are incubated with rat primary cerebral endothelial cells for one hour before Aβ25-35 30 μM intoxication that lasts 3 days.
Three days after this incubation, LDH release in the culture medium is quantified, reflecting the level of cell death.

[2] = tested on: rat primary cortical neurons; test: LDH release in Aβ25-35 intoxicated rat primary cortical neuron culture; details: Aβ25-35 20 μM, 2 days; drug added 1 hour before
Experimental: Primary rat cortical neurons are cultured as described by Singer et al., 1999. Briefly pregnant female rats of 15 days gestation are killed by cervical dislocation (Rats Wistar; Janvier) and the foetuses removed from the uterus. The cortexes are removed and placed in ice-cold medium of Leibovitz (L15; Invitrogen) containing 1% of Penicillin-Streptomycin (PS; Invitrogen) and 1% of bovine serum albumin (BSA; Sigma). Cortexes are dissociated by trypsinisation for 20 min at 37° C. (Trypsin EDTA 1×; Invitrogen) diluted in PBS without calcium and magnesium. The reaction is stopped by the addition of Dulbecco's modified Eagle's medium (DMEM; Invitrogen) containing DNAase I grade II (0.1 mg/ml; Roche Diagnostics) and 10% of foetal calf serum (FCS; Invitrogen). Cells are then mechanically dissociated by 3 passages through a 10 ml pipette. Cells are then centrifuged at 180×g for 10 min at 10° C. […] Viable cells are counted in a Neubauer cytometer using the trypan blue exclusion test. Cells are seeded at a density of 30,00-cells/well in 96-well plates (wells are pre-coated with poly-L-lysine (10 μg/ml; […] After 6 days of culture, cells are incubated with drugs (5 concentrations). After 1 hour, cells are intoxicated by 20 μM of β-amyloid (25-35; Sigma) in defined medium without BDNF but together with drugs. Cortical neurons are intoxicated for 2 days. After 2 days of culture, the supernatant is collected and analyzed with the Cytotoxicity Detection Kit (LDH, Roche Applied Sciences). This colorimetric assay for the quantification of cell death is based on the measurement of lactate dehydrogenase (LDH) activity released from the cytosol of damaged cells into the supernatant. The optic density (DO) is assessed by spectrophotometer at 492 nm wavelength by a multiscan apparatus (Thermo, Ref Ascent). […] Two days after this incubation, LDH release in the culture medium is quantified, reflecting the level of cell death.

[3] = tested on: rat primary cortical neurons; test: LDH release, human Aβ1-42 toxicity on rat primary cortical cells
Experimental: Primary rat cortical neurons are cultured as described previously.
Briefly, Aβ1-42 peptide was reconstituted in defined culture medium at 40 μM (mother solution) and was slowly shacked at +37° C. for 3 days in the dark for aggregation. The control medium was prepared in the same conditions.
After 10 days of neuron culture, the drug was solved in culture medium (+0.1% DMSO) and then pre-incubated with neurons for 1 hour before the Aβ1-42 application (in a final volume per culture well of 100 μl). […] Cortical neurons were intoxicated for 24 hours. Three separate cultures were performed per condition, 6 wells per condition.
Estradiol-β at 100 and 150 nM were used as a reference test compound and BDNF at 50 ng/ml was used as a positive control. Three separate cultures were performed per condition, […].
Estradiol-β and BDNF were solved in culture medium and pre-incubated for 1 h before the aggregated amyloid-β1-42 application.
Lactate Dehydrogenase (LDH) Activity Assay
This colorimetric assay for the quantification of cell toxicity is based on the measurement of lactate dehydrogenase (LDH) activity released from the cytosol of dying cells into the supernatant.
All values are expressed as mean±s.e.mean of the 3 cultures (n=6 per condition). Statistical analyses were done on the different conditions (ANOVA followed by the Dunnett's test when it was allowed, Statview software version 5.0).

[4] = tested on: human brain microvascular endothelial cells (HBMEC); test: Total length of capillary network in human Aβ1-42 intoxicated HBMEC cultures; details: for Effect on Aβ1-42 intoxication, total length of capillary network, drug alone / Prevention of Aβ1-42 intoxication, capillary network, drug alone: Aβ1-42 2.5 μM; for Prevention of Aβ1-42 intoxication, capillary network, drug alone: dose-response experiments, 18 h
Experimental: Human brain microvascular endothelial cell cultures were used to study the protection afforded by candidate compounds on Aβ1-42 toxicity.
Human brain microvascular endothelial cerebral cells (HBMEC, ScienCell Ref: 1000, frozen at passage 10) were rapidly thawed in a water bath at +37° C. […] On matrigel support, endothelial cerebral cells spontaneously started the process of capillary network morphogenesis (47).
Three separate cultures were performed per condition, 6 wells per condition.
The control medium was prepared in the same conditions.
The Aβ1-42 peptide was added 2 hours after HBMEC seeding on matrigel for 18 hours incubation.
Capillary Network Quantification
Per well, 2 pictures with 4× lens were taken using InCell Analyzer™ 1000 (GE Healthcare) in light transmission. All images were taken in the same conditions. Analysis of the angiogenesis networks was done using Developer software (GE Healthcare). The total length of capillary network was assessed.
All values are expressed as mean±s.e.mean of the 3 cultures (n=6 per condition). Statistical analyses were done on the different conditions performing an ANOVA followed by the Dunnett's test when it was allowed (Statview software version 5.0). The values (as %) inserted on the graphs show the amyloid toxicity evolution. Indeed, the amyloid toxicity was taken as the 100% and the test compound effect was calculated as a % of this amyloid toxicity.

[5] = drug pretreatment, concentration not given
[6] = alone at the concentrations used in the combination (FIGS. 8-13)

Molecule	Prevention of Aβ25-35 intoxication, LDH release [1]	LDH release, prevention of Aβ1-42 intoxication [3, 5]	Effect on Aβ1-42 intoxication, total length of capillary network, drug alone [4, 6]	Prevention of Aβ1-42 intoxication, capillary network, drug alone [4]	also measured
Cc1oncc1C(=O)Nc1ccc(C(F)(F)F)cc1 [Leflunomide]	significantly prevented				Spontaneous cell death in the culture medium [1]: decrease spontaneous cell death; Prevention of Aβ25-35 intoxication, LDH release [2]: significantly prevented
CC1(C)[C@@H](OC(=O)CCC(=O)O)CC[C@]2(C)[C@H]3C(=O)C=C4[C@@H]5C[C@@](C)(C(=O)O)CC[C@]5(C)CC[C@@]4(C)[C@]3(C)CC[C@@H]12 [Carbenoxolone]		−39%			
CCOC(=O)c1cncn1[C@H](C)c1ccccc1 [Etomidate]		−50%			
CCN(CC)C(=O)N1CCN(C)CC1 [Carbamazine]					Effect on Aβ1-42 intoxication, LDH release, drug alone ([3]; 0.32 nM alone, Aβ1-42 2.5 μM): no significant effect; LDH release, prevention of Aβ1-42 intoxication ([3]; 40 nM, Aβ1-42 10 μM): −68%; Protective effect against toxicity of Aβ peptide 1-42, drug alone ([3]; 40 nM, primary cortical neuron cells): strong protective effect
Cc1noc(NS(=O)(=O)c2ccc(N)cc2)c1C [Sulfisoxazole]	significantly prevented	−42%	no significant effect	significantly prevented	Effect on Aβ1-42 intoxication, total length of capillary network, drug alone ([4]; 1.36 nM alone): no significant effect; Prevention of Aβ25-35 intoxication, LDH release [2]: significantly prevented
NCC(CC(=O)O)c1ccc(Cl)cc1 (stereo not drawn) [Baclofen (−), Baclofen]	significantly prevented				
C[C@@H]1CC(=O)NN=C1c1ccc(NN=C(C#N)C#N)cc1 [Levosimendan]		−47%	no significant effect	significantly prevented	Protective effect against toxicity of Aβ peptide 1-42, drug alone ([4]; 8 nM, HBMEC): strong protective effect
C(=C\c1ccccc1)/CN1CCN(C(c2ccccc2)c2ccccc2)CC1 [Cinnarizine]		−50%			
NCC(CC(=O)O)c1ccc(Cl)cc1 (racemic) [Baclofen]		−86%	no significant effect	significantly prevented	
CN(C/C=C/C#CC(C)(C)C)Cc1cccc2ccccc12 [Terbinafine]	significantly prevented		no significant effect	significantly prevented	Spontaneous cell death in the culture medium [1]: decrease spontaneous cell death
NCCCCCC(=O)O [Aminocaproic acid, Aminocaproic Acid]			no significant effect		
brain-derived neurotrophic factor (protein, UniProt P23560 19-247, looked up, positive control for neuroprotection at 50 ng/ml) Neurotrophic factor BDNF …: APMKEANIRGQGGLAYPGVRTHGTLESVNGPKAGSRGLTSLADTFEHVIEELLDEDQKVRPNEENNKDADLYTSRVMLSSQVPLEPPLLFLLEEYKNYLDAANMSMRVRRHSDPARRGELSVCDSISEWVTAADKKTAVDMSGGTVTVLEKVPVSKGQLKQYFYETKCNPMGYTKEGCRGIDKRHWNSQCRTTQSYVRALTMDSKKRIGWRFIRIDTSCVCTLTIKRGR					LDH release, protection from amyloid injury ([3]; BDNF 50 ng/ml, 1 hr pre-treatment, Aβ1-42): −62%
